We go through 5 molecules from paper PMC12236907, “A Natural Depsipeptide Antibiotic that Targets the E site of the Bacterial Ribosome” (Research Square, 2025).

Test [1] deals with K. pneumoniae ATCC 33495 and C1559. In words: C. elegans – K. pneumoniae in vivo antibiotic activity assay (survival). Further details: species or system K. pneumoniae in Caenorhabditis elegans. The settings on record: MKM 64 μg/ml or polymyxin B 25 μg/ml, 6 days, vs DMSO; Log-rank (Mantel–Cox) test. On the procedure:
A C. elegans double mutant strain, AU37 (glp-4(bn2);sek-1(km4)), was used for this assay due to its enhanced pathogen infection sensitivity and temperature-sensitive sterility. The infection protocol was carried out as previously described, with slight modifications to accommodate our experimental conditions. Standard C. elegans media and protocols were used for the maintenance and growth of worms. To summarize, eggs were collected from gravid adult worms by bleaching and incubated on solid agar plates at 25 °C for 48 hours, until early adulthood. Worms were thoroughly washed with M9 buffer and transferred onto LB agar plates containing lawns of infective K. pneumoniae and incubated for another 24 hours. Worms were then washed from plates and resuspended in M9 to an approximate 2 worm per microlitre concentration. A survival assay was conducted in a 96-well plate with experimental wells containing 15 μl of worms, 80 μl S-basal (5.85 g NaCl, 1 g K2HPO4, 6 g KH2PO4, 1 ml cholesterol (5 mg/ml in ethanol), H2O to 1 litre. Sterilize by autoclaving), and 5 μl of test compound. Plates were sealed with a porous film and incubated at 25°C for a total of 7 days. The number of dead worms were counted every 24 hours to generate a Kaplan-Meier survival curve.

Another test relates to bacterial translation. Particulars: ref [32],[33]; cited from earlier work. The procedure: Bound in its primary site, MKM obstructs placement of C75 and A76 of the CCA end of a deacylated tRNA within the E-site of the large ribosomal subunit, with the most significant overlap of Phe3 of MKM with the 3’ terminal adenine of the E-tRNA (Fig. 3h).
The next test deals with eukaryotic ribosome. The settings on record: ref [23],[29],[55]; cited from earlier work. The source says:
Superficially, the mode of action of MKM resembles that of CHX, since MKM also stalls the elongating ribosome. However, the mechanism of translation inhibition by CHX and MKM are likely to be principally different. Because of the small size of CHX, it was proposed to co-accommodate in the E site of the eukaryotic ribosome ...

In the case of polymyxin B [reference compound], the “survival benefit in C. elegans (in words)” value in test [1] is reported as “significantly improved survival”.
For `CC(=O)O[C@@H]1[C@@H](O)[C@H](O[C@H]2[C@H](OC(=O)[C@H]3CC[C@@H]4[C@H](C3)O[C@@]3(C[C@H](OC(=O)/C=C/c5ccccc5)[C@H](C)CO3)[C@]43CO3)O[C@H](C)[C@@H](O)[C@@H]2OC(C)=O)O[C@H](C)[C@H]1O` [phyllanthoside], the “inhibition of bacterial translation” value in the test on bacterial translation is “do not inhibit bacterial translation”.
Take `C[C@@H]1C[C@@H]([C@H](O)CC2CC(=O)NC(=O)C2)C(=O)[C@@H](C)C1` [cycloheximide]: in the test on eukaryotic ribosome, the “effect on eukaryotic translation” value is recorded as “arrests the elongating ribosome”. The “inhibition of bacterial translation” value with bacterial translation is on record as “do not inhibit bacterial translation”.
On to `C/C(=C\[C@H](C)C(=O)C[C@H](O)CC1CC(=O)NC(=O)C1)[C@@H]1OC(=O)/C=C/CC/C=C/C=C\[C@@H]1C` [lactimidomycin], for which the “effect on eukaryotic translation” value with eukaryotic ribosome is “captures the ribosomes at start codons but has little effect on translation elongation or termination”. Moreover, the “inhibition of bacterial translation” value with bacterial translation is “do not inhibit bacterial translation”.
`C/C=C\[C@H](C)[C@H]1O[C@]1(C)[C@@H](O)[C@H]1COC(=O)[C@H](O)[C@@H](OC)[C@H](C)C(=O)[C@H](C)[C@@H](O)/C(C)=C/[C@H](C)C(=O)CC[C@@H](C)C1=O` [13-deoxytedanolide]: the “inhibition of bacterial translation” value with bacterial translation is recorded as “do not inhibit bacterial translation”.
